{"source": "patent US6506552B2", "about": "“Amino acid-trehalose composition” (Meiji Dairies Corporation, priority 1998, dated 2003)", "experiment": "Forced swimming of mice in a running water pool after oral administration; blood lactic acid, blood sugar and free fatty acid levels", "assay_type": "in vivo, mice (male; ddY)", "method": "This experiment was carried out according to the method disclosed in Jpn. J. Phys. Fitness Sports Med., 1995, 44:225-238. More specifically, mice (male; ddY) (6-week-old; 5 animals per group) were fasted at room temperature for 16 hours, followed by oral administration of a 1.8% by weight aqueous solution containing the composition VAAM or HVAAM as set forth in Table 1 or trehalose; an aqueous solution containing 1.8% by weight of VAAM and 2% by weight of trehalose; or an aqueous solution containing 1.8% by weight of VAAM analogue as set forth in Table 1 and 2% by weight of trehalose in an amount of 37.5 μl/g body weight and thereafter giving the mice a rest at room temperature for 30 minutes. Then the mice were forced to swim in a running water pool (a water tank having a diameter of 32 cm and a depth of 30 cm, which was filled with water maintained at 35° C. and in which the water was circulated at a rate of 8 m/min using a circulator) for 30 minutes. After forcing the mice to swim, they were inspected for the lactic acid level in the blood, the blood sugar (glucose) level and the free fatty acid level in the blood.\nThe lactic acid level in the blood was determined using a clinical reagent available from Sigma Company, by measuring absorbance at 340 nm due to NADH, each molecule of which was formed when lactic acid was converted into pyruvic acid because of the action of lactic acid dehydrogenase. The free fatty acid level in the serum was determined by centrifuging the collected blood and then quantitatively analyzing the fatty acids present in the supernatant. More specifically, the hydrogen peroxide formed by the action of acyl-CoA synthetic enzyme and acyl-CoA oxidase was reacted with a peroxidase, followed by determination of the absorbance at 550 nm due to the stained 3-methyl-N-ethyl-N-(2-hydroxyethyl)aniline and 4-aminoantipyrine to thus determine the free fatty acid level."}
{"smiles": "OC[C@H]1O[C@H](O[C@H]2O[C@H](CO)[C@@H](O)[C@H](O)[C@H]2O)[C@H](O)[C@@H](O)[C@@H]1O", "note": "[Tre, α, α-trehalose]", "values": [{"measurement": "Blood Sugar Level", "setting": "blood glucose, mice fasted 16 h, oral 37.5 μl/g body weight, 30 min rest, after 30 min forced swimming", "result": 83.14, "unit": "mg/dL"}, {"measurement": "Lactic Acid Level", "setting": "blood, mice fasted 16 h, oral 37.5 μl/g body weight, 30 min rest, after 30 min forced swimming", "result": 46.69, "unit": "mg/dL"}, {"measurement": "NEFA", "setting": "free fatty acid in serum, mice fasted 16 h, oral 37.5 μl/g body weight, 30 min rest, after 30 min forced swimming", "result": 0.97, "unit": "mEq/l"}, {"measurement": "free fatty acid level in the blood compared with the group to which 1.8% VAAM was administered", "setting": "mice, after 30 min swimming, FIG. 3, p<0.05", "result": "significantly higher"}, {"measurement": "lactic acid level in the blood compared with the group to which VAAM was administered", "setting": "mice, after load of swimming over 30 minutes, FIG. 1", "result": "did not show any significant difference"}]}
